Patent US20050119314A1, “Pharmaceutical composition comprising an ACAT inhibitor and an insulin resistance reducing agent” (SANKYO COMPANY, LIMITED, priority 2002, published 2005)

System: apolipoprotein E-deficient mice
Assay: Determination of areas of pathological changes appearing in the aorta (atherosclerotic lesions and macrophage area in the aortic valve)
Assay type: in vivo
Details: male apolipoprotein E-deficient mice, compounds mixed with diet (Compound A 0.03 w/w %, Compound B 0.0001 w/w %) for 12 weeks, average ± standard error; for Rate of area occupied with macrophage: anti-MOMA-2 positive area relative to lesion area
Description: Determination of Areas of Pathological Changes Appearing in the Aorta
Male apolipoprotein E-deficient mice of 12 weeks of age were divided into 4 groups (10 mice per a group) as follows: control group, group treated with 5-[4-(6-methoxy-1-methylbenzimidazol-2-yl-methoxy)benzyl]thiazolidine-2,4-dione hydrochloride (mixed with diet at a concentration of 0.0001 w/w %, hereinafter referred to as Compound B), group treated with N-(1-octyl-5-carboxymethyl-4,6-dimethylindolin-7-yl)-2,2-dimethylpropanamide hemisulfate (mixed with diet at a concentration of 0.03 w/w %, hereinafter referred to as Compound A), and co-administration group of Compound B (mixed with diet at a concentration of 0.0001 w/w %) and Compound A (mixed with diet at a concentration of 0.03 w/w %). All mice were treated with compounds mixed with diet except the control group for 12 successive weeks. The mice were autopsied in the 12th week and the area of atherosclerotic lesions in the aortic valve and the ratio of the area occupied by macrophages in the same area (positively stained area with anti-MOMA-2) were determined.
(1) Areas of Atherosclerotic Lesions in the Aorta
The aortic valve was stained with elastic-Masson and the area of atherosclerotic lesions in the aortic valve determined. Less-stained areas indicate greater inhibitory effects of the agents on the atherosclerotic lesions as well as suppressive action of the agents against progressive development of atherosclerotic lesions in the aorta.
(2) Rate of Area Occupied by Macrophages
Macrophages in the aortic valve were detected by staining with anti-MOMA-2. Areas occupied by macrophages in the aortic valve were determined and the ratio of the area occupied by macrophages (positively stained areas with anti-MOMA-2) to the area of atherosclerotic lesions in the aortic valve was calculated.
Macrophages are a factor to make plaques unstable. Thus decreases in macrophage accumulation increase plaque stability and are related to amelioration of the atherosclerotic lesions.
The actual measurement value in Table 1 indicates average ± standard error.

Molecule: COc1ccc2nc(COc3ccc(CC4SC(=O)NC4=O)cc3)n(C)c2c1.Cl (stereo not drawn) [Compound B, 5-[4-(6-methoxy-1-methylbenzimidazol-2-yl-methoxy)benzyl]thiazolidine-2,4-dione hydrochloride]
- Rate of area occupied with macrophage: 23.3 ± 4.1%
- Area of atherosclerotic lesions (elastic-Masson stain): 80616 ± 11611 μm^2

Molecule: N-(1-octyl-5-carboxymethyl-4,6-dimethylindolin-7-yl)-2,2-dimethylpropanamide hemisulfate [Compound A]
- Rate of area occupied with macrophage: 13.7 ± 2.2%
